Laboratory results published in US20220387408A1, “USE OF MAST CELL STABILIZER FOR THE TREATMENT OF HEART FAILURE WITH PRESERVED EJECTION FRACTION” (INSERM (INSTITUT NATIONAL DE LA SANTÉ ET DE LA RECHERCHE …, priority 2019, published 2022).
Entries after “also recorded” stand apart in the source; their conditions may differ.

Tests used:
Assay type in all cases: in vivo
Lepr^db/db female mice [1] = test: LV end diastolic pressure measurement by pressure catheter in Lepr^db/db mice; conditions: 2 month old Lepr^db/db female mice
Experimental: Lepr^db mice (BKS.Cg-Dock7m/+ Lepr^db/+J) were obtained from Charles River laboratories and bred together to obtain Lepr^db/db and control Lepr^db/+ mice. To prevent mast cell degranulation, mice were treated with 50 mg/kg/day cromolyn sodium (Abcam) via intra-peritoneal injections for 28 days. Untreated mice received 0.9% NaCl daily intra-peritoneal injections. […] LV diastolic pressure measurement was assessed using pressure—volume conductance catheter technique. Briefly, mice will be anesthetized with Isoflurane. A Scisense pressure catheter (Transonic) will be inserted into the LV through the common carotid artery. Pressure will be recorded using […] LabChart software. End diastolic pressure, dP/dt minimum and maximum, Tau and heart rate were automatically calculated by a curve fit through end-systolic and end-diastolic points on the pressure plot.

Lepr^db/db female mice [2] = test: Echocardiography (ejection fraction, LV wall thickness) in Lepr^db/db mice; conditions: data not shown
Description: Lepr^db mice (BKS.Cg-Dock7m/+ Lepr^db/+J) were obtained from Charles River laboratories and bred together to obtain Lepr^db/db and control Lepr^db/+ mice.
[…] Untreated mice received 0.9% NaCl daily intra-peritoneal injections.
Left-ventricular ejection fraction and LV dimension will be measured on a high-resolution echocardiographic system equipped with a 30-MHz mechanical transducer (VEVO 2100, VisualSonics Inc.) as previously described 13,14. Mice were anchored to a warming platform in a supine position, limbs were taped to the echocardiograph electrodes, and chests were shaved and cleaned with a chemical hair remover to minimize ultrasound attenuation. UNI′GEL ECG (Asept Inmed), from which all air bubbles had been expelled, was applied to the thorax to optimize the visibility of the cardiac chambers. Ejection fractions were evaluated by planimetry as recommended (Schiller et al. 1989). Two-dimensional, parasternal long-axis and short-axis views were acquired, and the endocardial area of each frame was calculated by tracing the endocardial limits in the long-axis view, then the minimal and maximal areas were used to determine the left-ventricular end-systolic (ESV) and end-diastolic (EDV) volumes, respectively. The system software uses a formula based on a cylindrical-hemiellipsoid model (volume=8·area^2/3π/length) 15. The left-ventricular ejection fraction was derived from the following formula: (EDV−ESV)/EDV*100. The cardiac wall thickness (Left ventricular posterior wall (LVPW), Inter-ventricular septum (IVS) and left ventricular internal diameter (LVID) were calculated by tracing wall limits in both the long and short axis views.

Lepr^db/db female mice [3] = test: Immuno-histological assessment of the heart (capillaries, albumin, CD45+ leucocytes, mast cells, cardiomyocyte size) in Lepr^db/db mice
Experimental: Lepr^db mice (BKS.Cg-Dock7m/+ Lepr^db/+J) were obtained from Charles River laboratories and bred together to obtain Lepr^db/db and control Lepr^db/+ mice. To prevent mast cell degranulation, mice were treated with 50 mg/kg/day cromolyn sodium (Abcam) via intra-peritoneal injections for 28 days. Untreated mice received 0.9% NaCl daily intra-peritoneal injections. […] Prior to staining, heart were stopped in diastole using KCl, perfused and then fixed in 10% formalin for 4 hours, paraffin embedded and cut into 7 μm thick sections. Alternatively, heart were fresh frozen in OCT, then cut into 7 μm thick sections. ECs were identified using rat anti-CD31 antibodies (Histonova, cat #DIA-310). Albumin was stained using sheep anti-albumin antibodies (Abcam, Cat #ab8940). Pan-leucocytes were identified using rat anti-mouse CD45 antibodies (BD Pharmingen Inc, Cat #550539). For immunofluorescence analyzes, primary antibodies were resolved with Alexa Fluor®-conjugated secondary polyclonal antibodies (Invitrogen, Cat #[NT]-10037) and nuclei were counterstained with DAPI (1/5000). Negative controls using secondary antibodies only were done to check for antibody specificity. Capillary density (CD31+ vessels) was quantified in 4 pictures taken under ×260 magnification in areas where cardiomyocytes were oriented transversally. To assess the mean capillary diameter, the diameter of 10 capillary randomly chosen in each picture was measured via Image J. Inflammatory cell density (CD45+) was quantified in 8 pictures randomly taken under ×260 magnification. All pictures and quantifications (done using ImageJ/Fiji v2.0.0-rc-59 software (National Institute of Health, USA)) were performed by a blinded investigator. More precisely, all samples were assigned a random number prior to animal sacrifice, data collection and analysis. At the end of the experiment, the genotype/treatment for each animal was unveiled to allow data comparison and experimental conclusion.

Lepr^db/db female mice [4] = test: Heart weight in Lepr^db/db mice; conditions: 50 mg/kg/day cromolyn sodium for 28 days; data not shown
Experimental: To prevent mast cell degranulation, mice were treated with 50 mg/kg/day cromolyn sodium (Abcam) via intra-peritoneal injections for 28 days. Untreated mice received 0.9% NaCl daily intra-peritoneal injections.

[5] = 50 mg/kg/day cromolyn sodium for 28 days

Row | SMILES | End diastolic pressure (EDP) (Lepr^db/db female mice [1]; 4 mg/kg/day cetirizine orally (drinking water) for 28 days vs vehicle, FIG. 1B) | Ejection fraction (Lepr^db/db female mice [2]; 4 mg/kg/day cetirizine orally for 28 days) | End diastolic pressure (EDP) (Lepr^db/db female mice [1]; 50 mg/kg/day cromolyn sodium intra-peritoneal for 28 days vs vehicle, FIG. 1A) | End diastolic pressure (EDP) (Lepr^db/db female mice [1]; 50 mg/kg/day cromolyn sodium intra-peritoneal for 28 days vs vehicle, FIG. 1A, listed as Cromolyn Sodium) | End diastolic pressure (EDP) (Lepr^db/db female mice [1]; 50 mg/kg/day cromolyn sodium intra-peritoneal for 28 days vs vehicle, FIG. 1A, listed as Cromolyn sodium) | Ejection fraction (Lepr^db/db female mice [2]; [5]) | LV posterior wall thickness (Lepr^db/db female mice [2]; [5]) | Cardiac microvessel density (CD31+ vessels/mm^2) (Lepr^db/db female mice [3]; 50 mg/kg/day cromolyn sodium for 28 days vs vehicle, FIG. 2A) | Mean cardiac capillary diameter (Lepr^db/db female mice [3]; 50 mg/kg/day cromolyn sodium for 28 days vs vehicle, FIG. 2B) | Capillary permeability (albumin extravasation, albumin+ surface area) (Lepr^db/db female mice [3]; 50 mg/kg/day cromolyn sodium for 28 days vs vehicle, FIG. 2C) | CD45+ leucocyte recruitment (CD45+ cells/mm^2) (Lepr^db/db female mice [3]; 50 mg/kg/day cromolyn sodium for 28 days vs vehicle, FIG. 2D) | Percentage of degranulating mast cells in the heart (Lepr^db/db female mice [3]; 50 mg/kg/day cromolyn sodium for 28 days vs vehicle, data not shown) | Mean cardiomyocyte size (Lepr^db/db female mice [3]; 50 mg/kg/day cromolyn sodium for 28 days, data not shown) | Heart weight (Lepr^db/db female mice [4])
1 | O=C(O)COCCN1CCN(C(c2ccccc2)c2ccc(Cl)cc2)CC1 (centres unmarked) [cetirizine] | significantly decreased | not modulated |  |  |  |  |  |  |  |  |  |  |  | 
2 | O=C(O)c1cc(=O)c2c(OCC(O)COc3cccc4oc(C(=O)O)cc(=O)c34)cccc2o1 [cromolyn sodium] |  |  | significantly decreased; also recorded: prevents increased EDP | prevents the occurrence of diastolic dysfunction | significantly reduced | not modulated | did neither modify | did not modify | did reduce | decreased | decreases; also recorded: significantly decreased | did decrease | did neither modify | did neither modify
